Reference: patent publication US20030198692A1, “Microbial inhibitory compositions” (priority 2000, published 2003)

What was measured:
Type in all cases: cell-based
Pseudomonas aeruginosa = assay: Growth of Pseudomonas aeruginosa in the presence of furanones, alone or with a cell-permeabilising agent; conditions: for prevention of growth of P. aeruginosa (ranking): furanone 10 μg/ml with EDTA 0.02%
Protocol: Ten furanones (compounds 2, 3, 19, 30, 45, 55, 56, 24/25, 26/27 and 33/34) (see Table 2) were tested against growth of Gram negative bacteria in a combination treatment using a cell permeabilising agent (Polymyxin B and EDTA).
Different furanone compounds under test were applied at 10 μg/ml (concentration of stock solution of furanone compound or mixture of compounds was 2 mg/ml) and polymyxin B was employed at concentrations which ranged from 0.3-1 μg/ml (stock solution was 10 mg/ml).
In addition, EDTA which also affects the permeability of the cell membrane was tested against growth of P. aeruginosa in combination with the different furanones. EDTA was added at a concentration of 0.02%. […] It is possible that they differently allow for different furanones to penetrate the cell membrane.
Growth of Pseudomonas aeruginosa in the presence of citric acid, toluene, Tween 80 and two different quaternary ammonium compounds was further investigated. The tested furanones was furanone 30 and 34 at 10 μg/ml (concentration of stock solution of furanone compound was 10 mg/ml). The used cell-permeability agents were employed at concentrations which ranged from 0.35-0.001%.

Escherichia coli = assay: Growth of Escherichia coli in the presence of polymyxin B and furanones; conditions: furanone 10 μg/ml with polymyxin B 0.3-1 μg/ml
Protocol: Growth of Gram negative bacteria is not generally affected by furanone compounds alone. […] In order to explore this concept, the antibiotic polymyxin B was included in the initial round of experiments (see FIGS. 2, 3 and 4) involving the bacteria Escherichia coli, Burkholdera cepacia and Pseudomonas aeruginosa. […] Different furanone compounds under test were applied at 10 μg/ml (concentration of stock solution of furanone compound or mixture of compounds was 2 mg/ml) and polymyxin B was employed at concentrations which ranged from 0.3-1 μg/ml (stock solution was 10 mg/ml).

Candida albicans = assay: Growth of Candida albicans in the presence of furanone 57 with or without EDTA
Protocol: The yeast, Candida albicans, was tested in the presence of furanone 57 at 250 ng/ml. […] In combination with 0.01% EDTA the growth of the cells was inhibited for at least 32 hrs.

Corynebacterium jeikeium = assay: Growth of Corynebacterium jeikeium in the presence of furanone 2 and EDTA; conditions: compound 100 μg/ml in combination with EDTA 0.02%
Protocol: Moreover, the growth of the Gram-positive bacteria, Corynebacterium jeikeium, was inhibited by compound 2 (100 μg/ml) in combination with EDTA (0.02%). The lagphase of growth was prolonged for 20 hr.

[1] = furanone 10 μg/ml in combination with citric acid

O=C1C=C(Br)/C(=C/Br)O1 [Compound 30]
prolongation of lag phase of growth of P. aeruginosa (in words) (Pseudomonas aeruginosa; [1]): also prolonged the lag phase of growth however not as strongly as compound 34
prevention of growth of P. aeruginosa (ranking) (Pseudomonas aeruginosa): most effective compounds in preventing growth
growth of P. aeruginosa (Pseudomonas aeruginosa; furanone 10 μg/ml with Tween 80): slight growth inhibition
growth of P. aeruginosa (Pseudomonas aeruginosa; furanone 10 μg/ml with didecyldimethylammonium bromide): inhibited the growth of P. aeruginosa
activity against P. aeruginosa (ranking) (Pseudomonas aeruginosa; furanone 10 μg/ml with polymyxin B 0.3-1 μg/ml): most active compound
growth of P. aeruginosa (Pseudomonas aeruginosa; furanone 10 μg/ml with tetrabutylammoniumhydrogen sulfate (slightly more active of the two quaternary ammonium compounds)): inhibited the growth of P. aeruginosa

O=C1C=C/C(=C/Br)O1 [Compound 56]
prevention of growth of P. aeruginosa (ranking) (Pseudomonas aeruginosa): most effective compounds in preventing growth

CCCCCC(Br)C1=CC(=C(Br)Br)OC1=O (centres unmarked) [Compound 34]
prolongation of lag phase of growth of P. aeruginosa (Pseudomonas aeruginosa; [1]): approximately 3 hours

CCCC(F)C1=C(Br)/C(=C/Br)OC1=O (centres unmarked) [Compound 45]
time period of inhibition of growth of E. coli (Escherichia coli): 8 h

CCCCCC(F)C1=C(Br)/C(=C/Br)OC1=O (centres unmarked) [Compound 57]
duration of inhibition of growth of C. albicans cells (Candida albicans; compound 250 ng/ml alone): 24 h
duration of inhibition of growth of C. albicans cells (Candida albicans; compound 250 ng/ml in combination with 0.01% EDTA): at least 32 hrs

CCCCC1=C(Br)C(=C(Br)Br)OC1=O [Compound 2]
time period of inhibition of growth of E. coli (Escherichia coli): 8 h
growth of Corynebacterium jeikeium (Corynebacterium jeikeium): inhibited
prolongation of lag phase of growth of Corynebacterium jeikeium (Corynebacterium jeikeium): 20 h
